This note sets out measurements from publication PMC6522912, “Evaluation of the published kinase inhibitor set to identify multiple inhibitors of bacterial ATP-dependent mur ligases” (Journal of Enzyme Inhibition and Medicinal Chemistry, 2019).

Read-outs that look alike come from different tables or passages of the source.

One test addresses E. coli MurD (Escherichia coli, UniProt P14900). The test is described as follows: biochemical. The following applies: for remaining activity at 100 µM: 0.25 h, Table S1, PKIS screening, read-out: RA [%] at 100 µM MurD. Here is the method: (§1) Inhibition of the Mur ligases was determined using the malachite green assay, with slight modifications.
(§2) In all cases, the final concentration of DMSO was 5% (v/v). After incubation for 15 min at 37 °C, the enzyme reaction was terminated by addition of 100 µM Biomol green reagent, and the absorbance was measured at 650 nm after 5 min. All of the experiments were run in duplicate. Residual activities were calculated with respect to control assays without the tested compounds, but with the 5% DMSO carrier.
(§3) The published kinase inhibitor set compounds were evaluated for inhibition of MurC, D and F ligases from E. coli using the Malachite green assay, which detects orthophosphate generated during enzymatic reactions. To avoid non-specific inhibition due to aggregate formation, all of the compounds were tested in the presence of detergent (0.005% Triton-X114). The data are presented as the residual activities of these Mur ligases in the presence of 100 µM of each test compound (Supporting Information Table S1).

For another test, the target named is E. coli MurF (Escherichia coli, UniProt P11880). The test is described as follows: biochemical. Particulars: for remaining activity at 100 µM: 0.25 h, read-out: RA [%] at 100 µM MurF. How it is done: as §1, §2
as §3, with “S1). […] Additionally, regarding the data of profiled compounds in large panels of human kinase assays[41]” for “S1).”

Another test deals with E. coli MurC (Escherichia coli, UniProt P17952). Kind of test: Malachite green inhibition assay, MurC. The test is classed as biochemical. The following applies: for remaining activity at 100 µM: 0.25 h, read-out: RA [%] at 100 µM MurC. Here is the method:
as §1, §2
as §3, with “S1). […] Additionally, regarding the data of profiled compounds in large panels of human kinase assays[41]” for “S1).”

E. coli MurC, sequence (P17952 whole entry): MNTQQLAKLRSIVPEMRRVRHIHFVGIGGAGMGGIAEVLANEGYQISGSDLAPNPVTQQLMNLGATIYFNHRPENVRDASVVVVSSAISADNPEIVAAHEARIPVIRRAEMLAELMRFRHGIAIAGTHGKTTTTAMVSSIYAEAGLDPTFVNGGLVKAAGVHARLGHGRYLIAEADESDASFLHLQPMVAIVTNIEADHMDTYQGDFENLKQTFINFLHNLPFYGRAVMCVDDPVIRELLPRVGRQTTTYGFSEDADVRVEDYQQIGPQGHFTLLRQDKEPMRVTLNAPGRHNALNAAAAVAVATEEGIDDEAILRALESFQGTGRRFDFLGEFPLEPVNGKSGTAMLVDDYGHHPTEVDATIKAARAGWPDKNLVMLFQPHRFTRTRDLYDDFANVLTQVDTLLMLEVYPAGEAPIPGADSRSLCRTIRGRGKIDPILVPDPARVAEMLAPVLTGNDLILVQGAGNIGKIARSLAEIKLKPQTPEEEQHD
E. coli MurD, sequence (P14900 whole entry): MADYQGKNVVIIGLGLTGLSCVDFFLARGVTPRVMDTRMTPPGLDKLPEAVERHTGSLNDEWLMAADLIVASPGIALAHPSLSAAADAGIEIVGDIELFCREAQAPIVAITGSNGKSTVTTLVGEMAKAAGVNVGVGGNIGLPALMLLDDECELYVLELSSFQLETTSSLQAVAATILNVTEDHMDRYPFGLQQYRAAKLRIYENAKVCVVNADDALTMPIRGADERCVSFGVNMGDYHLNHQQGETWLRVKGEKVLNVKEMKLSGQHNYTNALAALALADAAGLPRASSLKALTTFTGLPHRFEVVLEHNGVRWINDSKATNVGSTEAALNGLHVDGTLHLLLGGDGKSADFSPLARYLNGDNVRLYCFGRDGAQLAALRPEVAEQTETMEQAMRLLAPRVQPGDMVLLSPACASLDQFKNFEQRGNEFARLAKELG
E. coli MurF, sequence (P11880 whole entry): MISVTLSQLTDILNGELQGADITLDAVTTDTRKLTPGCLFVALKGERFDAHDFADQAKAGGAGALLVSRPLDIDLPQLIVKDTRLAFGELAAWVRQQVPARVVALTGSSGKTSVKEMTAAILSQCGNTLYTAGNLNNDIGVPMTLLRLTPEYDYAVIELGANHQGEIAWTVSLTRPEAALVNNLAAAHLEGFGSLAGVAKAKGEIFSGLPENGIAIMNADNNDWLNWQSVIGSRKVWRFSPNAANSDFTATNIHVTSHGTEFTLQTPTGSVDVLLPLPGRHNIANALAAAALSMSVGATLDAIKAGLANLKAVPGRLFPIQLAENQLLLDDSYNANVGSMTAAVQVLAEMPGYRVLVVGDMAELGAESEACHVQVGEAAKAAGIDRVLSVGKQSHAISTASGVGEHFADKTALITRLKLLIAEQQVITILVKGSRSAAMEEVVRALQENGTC

In the case of `c1ccc(COc2ccc(Nc3ncnc4ccc(-c5ccco5)cc34)cc2)cc1` [GW284372X], the remaining activity at 100 µM was 80% at E. coli MurD; 100% at E. coli MurF (Table S1, PKIS screening); 56% on E. coli MurC (Table S1, PKIS screening).
As to `O=C1Nc2ccccc2/C1=C/Nc1ccc2[nH]c(=O)[nH]c2c1` [GW284408X], the remaining activity at 100 µM worked out at 86% at E. coli MurD; 86% at E. coli MurF (Table S1, PKIS screening); 105% on E. coli MurC (Table S1, PKIS screening).
With `NS(=O)(=O)c1ccc(NN=C2C(=O)Nc3ccc(C(=O)NCCCn4ccnc4)cc32)cc1` [GW290597X], the remaining activity at 100 µM on E. coli MurD was found to be 92%; at E. coli MurF (Table S1, PKIS screening) it was 100%; at E. coli MurC (Table S1, PKIS screening), 63%.
Take `COc1ccc2[nH]c3c4[nH]c5ccc(OC)cc5c4c4c(c3c2c1)C(=O)NC4=O` [GW296115X]: the remaining activity at 100 µM at E. coli MurD was 87%; on E. coli MurF (Table S1, PKIS screening) it was 100%; at E. coli MurC (Table S1, PKIS screening) it was 100%.
For `NS(=O)(=O)c1ccc(N/C=C2\C(=O)Nc3ccc4ncsc4c32)cc1` [GW297361X], the remaining activity at 100 µM at E. coli MurD amounted to 76%; on E. coli MurF (Table S1, PKIS screening) it was 86%; on E. coli MurC (Table S1, PKIS screening) it was 107%.
For `CC(C)c1ccc2c(c1)NC(=O)C2=NNc1ccc(S(N)(=O)=O)cc1` [GW300653X] the same measures were 85%, 75% and 100%.
For `NS(=O)(=O)c1ccc(NN=C2C(=O)Nc3ccc(C(=O)NCc4ccncc4)cc32)cc1` [GW300657X], the remaining activity at 100 µM turned out to be 96% on E. coli MurD; 85% on E. coli MurF (Table S1, PKIS screening); 75% on E. coli MurC (Table S1, PKIS screening).
For `NS(=O)(=O)c1ccc(N/N=C2\C(=O)Nc3ccc(C(=O)NCCc4c[nH]cn4)cc32)cc1` [GW300660X], the remaining activity at 100 µM at E. coli MurD amounted to 90%; on E. coli MurF (Table S1, PKIS screening), 96%; at E. coli MurC (Table S1, PKIS screening), 58%.
For `O=C1Nc2ccccc2/C1=C/Nc1ccc(-n2cncn2)cc1` [GW301789X] the same measures were 91%, 75% and 64%.
Take `CN(C)c1cc2c(Nc3ccc4nc(Cc5ccccc5)[nH]c4c3)ncnc2cn1` [GW301888X]: the remaining activity at 100 µM stood at 80% at E. coli MurD; 75% at E. coli MurF (Table S1, PKIS screening); 83% on E. coli MurC (Table S1, PKIS screening).
For `O=C1Nc2ccc(I)cc2C1=Cc1cc(Br)c(O)c(Br)c1` [GW305074X] the same measures were 92%, 78% and 100%.
As to `NS(=O)(=O)c1ccc(N/N=C2\C(=O)Nc3ccc4ncccc4c32)cc1` [GW305178X], the remaining activity at 100 µM on E. coli MurD was 57%; at E. coli MurF (Table S1, PKIS screening), 56%; on E. coli MurC (Table S1, PKIS screening) it was 52%.
On to `C/C(Nc1ccc(S(N)(=O)=O)cc1)=C1/C(=O)Nc2ccccc21` [GW335962X], for which the remaining activity at 100 µM at E. coli MurD turned out to be 76%; at E. coli MurF (Table S1, PKIS screening), 88%; at E. coli MurC (Table S1, PKIS screening), 72%.
As for `NS(=O)(=O)c1ccc(NN=C2C(=O)Nc3cccc(CCc4ccncc4)c32)cc1` [GW352430A], the remaining activity at 100 µM stood at 90% at E. coli MurD; 37% at E. coli MurF (Table S1, PKIS screening); 64% on E. coli MurC (Table S1, PKIS screening).
Turning to `COC(=O)c1ccc2c(c1)C(=Cc1cc(Br)c(O)c(Br)c1)C(=O)N2` [GW405841X], the remaining activity at 100 µM on E. coli MurD came out at 82%; on E. coli MurF (Table S1, PKIS screening), 75%; at E. coli MurC (Table S1, PKIS screening), 93%.
For the compound `O=C1Nc2ccc(C(=O)c3ccco3)cc2C1=Cc1cc(Cl)c(O)c(Cl)c1` [GW406108X], the remaining activity at 100 µM at E. coli MurD amounted to 85%; on E. coli MurF (Table S1, PKIS screening), 79%; at E. coli MurC (Table S1, PKIS screening), 74%.
For the compound `COC(=O)c1cncc(/C=C/c2c(C)cc(O)cc2C)c1` [GW406731X], the remaining activity at 100 µM at E. coli MurD is 69%; at E. coli MurF (Table S1, PKIS screening) it was 81%; on E. coli MurC (Table S1, PKIS screening) it was 98%.
For `Nc1nc(-c2ccc3c(c2)C(=Cc2cc(Br)c(O)c(Br)c2)C(=O)N3)cs1` [GW407323A] the same measures were 54%, 41% and 64%.
On to `COc1cc2ncnc(Nc3ccc(C)c(O)c3)c2cc1OC` [GW410563A], for which the remaining activity at 100 µM at E. coli MurD turned out to be 92%; at E. coli MurF (Table S1, PKIS screening), 100%; on E. coli MurC (Table S1, PKIS screening), 60%.
In the case of `CN(C)c1ccc2c(c1)/C(=C/Nc1ccc(S(N)(=O)=O)cc1)C(=O)N2` [GW416469X], the remaining activity at 100 µM on E. coli MurD stood at 89%; on E. coli MurF (Table S1, PKIS screening), 79%; on E. coli MurC (Table S1, PKIS screening), 76%.
As to `CC(C)COC(=O)c1ccc2c(c1)/C(=C/Nc1ccc(S(N)(=O)=O)cc1)C(=O)N2` [GW416981X], the remaining activity at 100 µM on E. coli MurD is 100%; on E. coli MurF (Table S1, PKIS screening), 67%; on E. coli MurC (Table S1, PKIS screening), 60%.
With `O=C1Nc2ccc(-c3cccnc3)cc2C1=Cc1cc(Br)c(O)c(Br)c1` [GW429374A], the remaining activity at 100 µM at E. coli MurD was determined as 51%; on E. coli MurF (Table S1, PKIS screening), 16%; on E. coli MurC (Table S1, PKIS screening), 30%.
`CNC(=O)Oc1cc(C)c(/C=C/c2cncc(C(=O)NC)c2)c(C)c1` [GW432441X]: the values for the remaining activity at 100 µM at E. coli MurD, at E. coli MurF and at E. coli MurC were 69%, 87% and 68%, respectively.
Take `Fc1ccc(-c2nn3ccccc3c2-c2ccncc2)cc1` [GW434756X]: the remaining activity at 100 µM came to 68% on E. coli MurD; 94% on E. coli MurF (Table S1, PKIS screening); 74% at E. coli MurC (Table S1, PKIS screening).
For `Cc1cc(O)cc(C)c1/C=C/c1cncc(C(N)=O)c1` [GW435821X], in that order: 89%, 75% and 89%.
Turning to `Cc1cc(O)cc(C)c1/C=C/c1cncc(C(=O)OC(C)(C)C)c1` [GW439255X], the remaining activity at 100 µM on E. coli MurD came out at 96%; at E. coli MurF (Table S1, PKIS screening), 69%; on E. coli MurC (Table S1, PKIS screening), 75%.
As for `Cc1ccc(O)cc1Nc1ccnc2cc(-c3ccccn3)ccc12` [GW440139B], the “RA [%] at 100 µM MurD” value at E. coli MurD came to 73. Moreover, on E. coli MurF (Table S1, PKIS screening), the “RA [%] at 100 µM MurF” value is 66%. Moreover, the “RA [%] at 100 µM MurC” value at E. coli MurC (Table S1, PKIS screening) is listed as 73%.
For `Cn1cc(C=C2C(=O)Nc3cccnc32)c2ccccc21` [GW441756X], the remaining activity at 100 µM on E. coli MurD worked out at 99%; on E. coli MurF (Table S1, PKIS screening), 89%; on E. coli MurC (Table S1, PKIS screening), 75%.
With `Cc1cc(O)cc(C)c1/C=C/c1cncc(-c2nn[nH]n2)c1` [GW441806A], the remaining activity at 100 µM at E. coli MurD is 91%; on E. coli MurF (Table S1, PKIS screening), 90%; on E. coli MurC (Table S1, PKIS screening), 70%.
For the compound `COc1ccccc1-c1cc(/C=C2\C(=O)Nc3ncc(Br)cc32)cc(Br)c1O` [GW442130X], the remaining activity at 100 µM at E. coli MurD was determined as 84%; at E. coli MurF (Table S1, PKIS screening), 67%; on E. coli MurC (Table S1, PKIS screening) it was 100%.
For the compound `CNC(=O)c1cncc(/C=C/c2c(C)cccc2C)c1` [GW445012X], the remaining activity at 100 µM at E. coli MurD was 83%; at E. coli MurF (Table S1, PKIS screening) it was 54%; at E. coli MurC (Table S1, PKIS screening), 85%.
For `CNC(=O)c1cncc(/C=C/c2c(Cl)cccc2Cl)c1` [GW445014X], in that order: 80%, 77% and 81%.
For `CNC(=O)c1cncc(/C=C/c2ccccc2C)c1` [GW445015X], in that order: 91%, 85% and 100%.
For `CNC(=O)c1cncc(/C=C/c2ccccc2Cl)c1` [GW445017X] the same measures were 87%, 90% and 68%.
Take `CCc1cccc(CC)c1/C=C/c1cncc(C(=O)NC)c1` [GW450241X]: the remaining activity at 100 µM on E. coli MurD came to 74%; at E. coli MurF (Table S1, PKIS screening), 76%; at E. coli MurC (Table S1, PKIS screening) it was 67%.
For `CS(=O)(=O)CCNCc1ccc(-c2ccc3ncnc(Nc4ccc(OCc5ccccc5)cc4)c3c2)o1` [GW458787A], in that order: 58%, 66% and 68%.
For `Cc1cc(-c2ccccn2)cc(C)c1/C=C/c1cncc(-c2nn[nH]n2)c1` [GW459057A] the same measures were 83%, 76% and 59%.
As to `CS(=O)(=O)CCNCc1nc(-c2ccc3ncnc(Nc4ccc(F)c(Cl)c4)c3c2)cs1` [GW461104A], the remaining activity at 100 µM on E. coli MurD turned out to be 73%; on E. coli MurF (Table S1, PKIS screening), 84%; on E. coli MurC (Table S1, PKIS screening), 88%.
